From ChEMBL document CHEMBL1139137, “Modifications of the GSK3beta substrate sequence to produce substrate-mimetic inhibitors of Akt as potential anti-cancer therapeutics” (Bioorg Med Chem Lett, 2007) come the findings set out here.

Starred links: 1 amine or outer side, 2 acyl side, 3 side chain; linkers in the order of their positions; H or OH if unused. Non-standard residues stand in square brackets, D forms with d. Residues, ends and D or L forms follow the SMILES beside them. *: point of attachment. NH(2-(1-naphthyl)ethyl) = c1ccc2c(CCN*)cccc2c1; NHCH2CH2(piperidin-1-yl) = C1CCN(CCN*)CC1; X4 = c1ccc(CC2CCN(CCN*)CC2)cc1; X1 = CC(=O)Nc1cccc(OCCCN*)c1; X2 = c1ccc2cc(CCN*)ccc2c1; 4Abz = Nc1ccc(C(=O)O)cc1; X3 = CCCCCc1ccc(CN*)cc1; CO = O=C([*:1])[*:2]; NHBn = c1ccc(CN*)cc1; NHHex = CCCCCCN*

The term IC50 denotes the point on the concentration scale where inhibition reaches its midpoint. Higher therefore signals lower potency.

The target in this assay is RAC-alpha serine/threonine-protein kinase (Homo sapiens, UniProt P31749). Kind of assay: Inhibition of Akt after 1 hr by fluorescence polarization assay. On the technique in general: In fluorescence polarisation assays a small probe gives low polarisation when free and higher when bound to something large.
Sequence of RAC-alpha serine/threonine-protein kinase (P31749 whole entry): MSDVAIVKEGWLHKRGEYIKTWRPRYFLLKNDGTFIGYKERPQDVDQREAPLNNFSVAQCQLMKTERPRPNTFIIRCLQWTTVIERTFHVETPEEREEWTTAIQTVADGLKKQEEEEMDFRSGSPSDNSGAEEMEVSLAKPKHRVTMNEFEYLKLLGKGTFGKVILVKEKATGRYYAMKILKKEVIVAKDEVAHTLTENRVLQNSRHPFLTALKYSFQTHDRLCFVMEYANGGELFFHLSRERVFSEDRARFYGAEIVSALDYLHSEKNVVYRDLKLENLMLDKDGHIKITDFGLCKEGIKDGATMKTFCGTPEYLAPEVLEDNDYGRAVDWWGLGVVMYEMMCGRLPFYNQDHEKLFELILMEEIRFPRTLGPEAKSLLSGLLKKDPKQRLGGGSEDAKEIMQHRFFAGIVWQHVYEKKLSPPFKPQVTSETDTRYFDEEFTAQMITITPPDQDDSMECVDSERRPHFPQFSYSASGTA
In turn, `CC(C)[C@H](NC(=O)c1ccc(NCCNC(=N)N)cc1)C(=O)N[C@@H](Cc1ccccc1)C(=O)NCc1ccccc1` displayed a concentration for half-maximal inhibition (IC50) of 390 µM.
In turn, `CC(C)[C@H](NC(=O)c1ccc(CNC(=N)N)cc1)C(=O)N[C@@H](Cc1ccccc1)C(=O)NCc1ccccc1` came in with an IC50 above 500 µM.
Next, `CC(=O)N[C@@H](CCCN=C(N)N)C(=O)Nc1ccc(C(=O)N[C@H](C(=O)N[C@@H](Cc2ccccc2)C(=O)NCCc2ccc3ccccc3c2)C(C)C)cc1`: 51 µM.
Compound `CC(=O)N[C@@H](CCCNC(=N)N)C(=O)Nc1ccc(C(=O)N[C@H](C(=O)N[C@@H](Cc2ccccc2)C(=O)NCCc2cccc3ccccc23)C(C)C)cc1` came in with an IC50 of 89 µM.
Next, `CC(C)[C@H](NC(=O)c1ccc(CCN=C(N)N)cc1)C(=O)N[C@@H](Cc1ccccc1)C(=O)NCc1ccccc1`: 120 µM.
Take `CC(C)[C@H](NC(=O)c1ccc(N(CC(=O)NC(C)(C)C)C(=O)CCCCNC(=N)N)cc1)C(=O)N[C@@H](Cc1ccccc1)C(=O)NCc1ccccc1`: the half-maximal inhibitory concentration (IC50) is 58 µM.
`CCCCCCNC(=O)[C@H](Cc1ccccc1)NC(=O)[C@@H](NC(=O)c1ccc(NC(=O)[C@H](CCCNC(=N)N)NC(C)=O)cc1)C(C)C` showed an IC50 of 163 µM.
`CC(C)[C@H](NC(=O)c1ccc(NC(=N)N)cc1)C(=O)N[C@@H](Cc1ccccc1)C(=O)NCc1ccccc1`: half-maximal inhibition (IC50) was put at 77 µM.
On to `CCCCCc1ccc(CNC(=O)[C@H](Cc2ccccc2)NC(=O)[C@@H](NC(=O)c2ccc(NC(=O)[C@H](CCCN=C(N)N)NC(C)=O)cc2)C(C)C)cc1`, for which 104 µM corresponded to half-maximal inhibition (IC50).
Next, `CC(C)[C@H](NC(=O)c1ccc(N(CC(=O)NCc2ccccc2)C(=O)CCCCNC(=N)N)cc1)C(=O)N[C@@H](Cc1ccccc1)C(=O)NCc1ccccc1`: 14 µM.
`CC(C)[C@H](NC(=O)c1ccc(NC(=O)CCCCNC(=N)N)cc1)C(=O)N[C@@H](Cc1ccccc1)C(=O)NCc1ccccc1` displayed an IC50 of 193 µM.
Regarding `CC(=O)NCC(=O)N[C@@H](C)C(=O)N1CCC[C@H]1C(=O)N[C@@H](C)C(=O)Nc1ccc(C(=O)N[C@H](C(=O)N[C@@H](Cc2ccccc2)C(=O)NCc2ccccc2)C(C)C)cc1` (Ac-GAPA[4Abz]VF-NHBn), the IC50 is above 500 µM.
`CC(=O)NCC(=O)N[C@@H](C)C(=O)N1CCC[C@H]1C(=O)N[C@@H](CCCNC(=N)N)C(=O)Nc1ccc(C(=O)N[C@H](C(=O)N[C@@H](Cc2ccccc2)C(=O)NCc2ccccc2)C(C)C)cc1` (Ac-GAPR[4Abz]VF-NHBn) yielded a half-maximal inhibitory concentration (IC50) of 41 µM.
In turn, `CC(=O)NCC(=O)N[C@@H](CCCN=C(N)N)C(=O)N1CCC[C@H]1C(=O)N[C@@H](C)C(=O)Nc1ccc(C(=O)N[C@H](C(=O)N[C@@H](Cc2ccccc2)C(=O)NCc2ccccc2)C(C)C)cc1` (Ac-GRPA[4Abz]VF-NHBn) showed an IC50 of 79 µM.
On to `CC(=O)NCC(=O)N[C@@H](CCCNC(=N)N)C(=O)N1CCC[C@H]1C(=O)N[C@@H](CCCNC(=N)N)C(=O)N[C@@H](C)C(=O)N[C@@H](C)C(=O)N[C@H](C(=O)N[C@@H](Cc1ccccc1)C(=O)NCc1ccccc1)C(C)C` (Ac-GRPRAAVF-NHBn), for which half-maximal inhibition (IC50) was put at 438 µM.
Next, `CC(=O)NCC(=O)N[C@@H](CCCNC(=N)N)C(=O)N1CCC[C@H]1C(=O)N[C@@H](CCCNC(=N)N)C(=O)N[C@H](C(=O)N[C@H](C(=O)N[C@H](C(=O)N[C@@H](Cc1ccccc1)C(=O)NCc1ccccc1)C(C)C)[C@@H](C)O)[C@@H](C)O` (Ac-GRPRTTVF-NHBn): 239 µM; `CCCCCCNC(=O)[C@H](Cc1ccccc1)NC(=O)[C@@H](NC(=O)c1ccc(NC(=O)[C@H](CCCN=C(N)N)NC(=O)[C@@H]2CCCN2C(=O)[C@H](CCCN=C(N)N)NC(=O)CNC(C)=O)cc1)C(C)C` (Ac-GRPR[4Abz]VF-NHHex): 52 µM.
Turning to `CC(=O)NCC(=O)N[C@@H](CCCNC(=N)N)C(=O)N1CCC[C@H]1C(=O)N[C@@H](CCCNC(=N)N)C(=O)Nc1ccc(C(=O)N[C@H](C(=O)N[C@@H](Cc2ccccc2)C(=O)NCCCOc2cccc(NC(C)=O)c2)C(C)C)cc1` (Ac-GRPR[4Abz]VF-X1), half-maximal inhibition (IC50) required 322 µM.
In the case of `CC(=O)NCC(=O)N[C@@H](CCCN=C(N)N)C(=O)N1CCC[C@H]1C(=O)N[C@@H](CCCN=C(N)N)C(=O)Nc1ccc(C(=O)N[C@H](C(=O)N[C@@H](Cc2ccccc2)C(=O)NCCc2ccc3ccccc3c2)C(C)C)cc1` (Ac-GRPR[4Abz]VF-X2), the IC50 came to 36 µM.
With `CCCCCc1ccc(CNC(=O)[C@H](Cc2ccccc2)NC(=O)[C@@H](NC(=O)c2ccc(NC(=O)[C@H](CCCN=C(N)N)NC(=O)[C@@H]3CCCN3C(=O)[C@H](CCCN=C(N)N)NC(=O)CNC(C)=O)cc2)C(C)C)cc1` (Ac-GRPR[4Abz]VF-X3), it took 96 µM to reach half-maximal inhibition (IC50).
For the compound `CC(=O)NCC(=O)N[C@@H](CCCNC(=N)N)C(=O)N1CCC[C@H]1C(=O)N[C@@H](CCCNC(=N)N)C(=O)Nc1ccc(C(=O)N[C@H](C(=O)N[C@@H](Cc2ccccc2)C(=O)NCCN2CCC(Cc3ccccc3)CC2)C(C)C)cc1` (Ac-GRPR[4Abz]VF-X4), it took 94 µM to reach half-maximal inhibition (IC50).
Next, `CC(=O)NCC(=O)N[C@@H](CCCNC(=N)N)C(=O)N1CCC[C@H]1C(=O)N[C@@H](CCCNC(=N)N)C(=O)Nc1ccc(C(=O)N[C@H](C(=O)N[C@@H](Cc2ccccc2)C(=O)NCCc2cccc3ccccc23)C(C)C)cc1` (Ac-GRPR[4Abz]VF-{NH(2-(1-naphthyl)ethyl)}): 62 µM; `CC(=O)NCC(=O)N[C@@H](CCCNC(=N)N)C(=O)N1CCC[C@H]1C(=O)N[C@@H](CCCNC(=N)N)C(=O)Nc1ccc(C(=O)N[C@H](C(=O)N[C@@H](Cc2ccccc2)C(=O)NCCN2CCCCC2)C(C)C)cc1` (Ac-GRPR[4Abz]VF-{NHCH2CH2(piperidin-1-yl)}): above 500 µM.
Under `CC(=O)N[C@@H](CCCN=C(N)N)C(=O)Nc1ccc(C(=O)N[C@H](C(=O)N[C@@H](Cc2ccccc2)C(=O)NCc2ccccc2)C(C)C)cc1` (Ac-R[4Abz]VF-NHBn) stands 119 µM.
Compound `C[C@@H](O)[C@H](NC(=O)[C@H](CCCNC(=N)N)NC(=O)[C@@H]1CCCN1C(=O)[C@H](CCCNC(=N)N)NC(=O)CNC(=O)O)C(=O)N[C@H](C(=O)N[C@@H](CC(N)=O)C(=O)N[C@@H](Cc1ccccc1)C(=O)O)[C@@H](C)O` ({CO}-GRPRTTNF-OH) came in with a half-maximal inhibitory concentration (IC50) of 229 µM.
On to Ac-GRPRTTAF-OH, for which the IC50 is 409 µM.
Under Ac-GRPRTTCF-OH stands 241 µM; under Ac-GRPRTTFF-OH, above 500 µM.
In the case of Ac-GRPRTTHF-OH, the half-maximal inhibitory concentration (IC50) is above 500 µM.
Ac-GRPRTTVF-OH showed an IC50 of 445 µM.
Regarding Ac-GRPRTTWF-OH, the IC50 was above 500 µM.
